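Growth conditions: 96-well plates. Treatment: test compound, 48 hours, 5 concentrations. Analysis: linear interpolation between bracketing concentrations; unreached endpoints set to highest concentration. GI50 marks 50% less growth.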 Calls of active or inactive are those of the source. Cut-off read from the data, not from the text of the source: active = GI50 up to about 1.1 µM and inactive = higher.
How the values were obtained:
Assay in all cases: growth of human tumour cells (NCI), 48 h
A498 = tested on: A498
CCRF-CEM = tested on: CCRF-CEM
DU-145 = tested on: DU-145
HCC 2998 = tested on: HCC 2998
HCT-15 = tested on: HCT-15
HL-60 = tested on: HL-60
IGROV-1 = tested on: IGROV-1
KM12 = tested on: KM12
MDA-MB-435 = tested on: MDA-MB-435
MOLT-4 = tested on: MOLT-4
Malme-3M = tested on: Malme-3M
NCI-H23 = tested on: NCI-H23
OVCAR-3 = tested on: OVCAR-3
OVCAR-5 = tested on: OVCAR-5
RPMI-8226 = tested on: RPMI-8226
SK-MEL-2 = tested on: SK-MEL-2
SK-MEL-5 = tested on: SK-MEL-5
SW-620 = tested on: SW-620
UACC-62 = tested on: UACC-62
NCI-H460 = tested on: NCI-H460

Row | SMILES | GI50 (A498) | GI50 (CCRF-CEM) | GI50 (DU-145) | GI50 (HCC 2998) | GI50 (HCT-15) [µM] | GI50 (HL-60) | GI50 (IGROV-1) | GI50 (KM12) | GI50 (MDA-MB-435) | GI50 (MOLT-4) | GI50 (Malme-3M) | GI50 (NCI-H23) | GI50 (OVCAR-3) | GI50 (OVCAR-5) | GI50 (RPMI-8226) | GI50 (SK-MEL-2) | GI50 (SK-MEL-5) | GI50 (SW-620) | GI50 (UACC-62) | GI50 (NCI-H460)
1 | CN(C)S(=O)(=O)c1nc(Cl)c2nc[nH]c2n1 | > 100 µM (inactive) | > 100 µM (inactive) | > 100 µM (inactive) | > 100 µM (inactive) | > 100 | 98.6 µM (inactive) | > 100 µM (inactive) | > 100 µM (inactive) | > 100 µM (inactive) | > 100 µM (inactive) | > 100 µM (inactive) | > 100 µM (inactive) | > 100 µM (inactive) | > 100 µM (inactive) | > 100 µM (inactive) | > 100 µM (inactive) | > 100 µM (inactive) | > 100 µM (inactive) | > 100 µM (inactive) | 
2 | O=C(c1ccccc1)c1c(C(F)(F)F)[n+]([O-])c2cc(F)c(F)cc2[n+]1[O-] | 2.56 µM (inactive) |  | 0.984 µM (active) | 0.589 µM (active) | 0.49 | < 0.144 µM (active) | 1.6 µM (inactive) | 1.07 µM (active) | 1.53 µM (inactive) | 0.242 µM (active) | 0.161 µM (active) | 0.211 µM (active) | 0.653 µM (active) | 1.51 µM (inactive) | 0.679 µM (active) | 1.79 µM (inactive) | 0.877 µM (active) | 0.499 µM (active) | 2.22 µM (inactive) | 3.21 µM (inactive)
3 | COC(=O)CCC(C)[C@H]1CCC2C3C(C[C@H](OC(C)=O)[C@@]21C)[C@@]1(C)CCC2(C[C@H]1C[C@H]3OC(C)=O)OOC1(CCC(C(C)(C)C)CC1)OO2 (stereo partly specified) | > 100 µM (inactive) | 5.5 µM (inactive) | > 100 µM (inactive) | 46.3 µM (inactive) | 50 | 9.4 µM (inactive) | 17.1 µM (inactive) | 14.1 µM (inactive) | 56 µM (inactive) | 7.52 µM (inactive) | 64.3 µM (inactive) | 9.42 µM (inactive) | 6.85 µM (inactive) | > 100 µM (inactive) | 3.91 µM (inactive) | > 100 µM (inactive) | 22.6 µM (inactive) | 12.3 µM (inactive) |  | 5.65 µM (inactive)
4 | CCOP(=O)(OCC)Oc1c(OC)c2[nH]c(C(=O)OC)cc2c2c(C(=O)O)c[nH]c12 | > 100 µM (inactive) | > 100 µM (inactive) | > 100 µM (inactive) | > 100 µM (inactive) | > 100 | > 100 µM (inactive) | > 100 µM (inactive) | 28.6 µM (inactive) | > 100 µM (inactive) | > 100 µM (inactive) | > 100 µM (inactive) | > 100 µM (inactive) | > 100 µM (inactive) | > 100 µM (inactive) |  | > 100 µM (inactive) | > 100 µM (inactive) | > 100 µM (inactive) | > 100 µM (inactive) | > 100 µM (inactive)
5 | [N-]=[N+]=Nc1ccccc1C(=O)N1C(=O)c2ccccc2C(=O)N(C(=O)c2ccccc2N=[N+]=[N-])c2ccccc21 | 42.2 µM (inactive) | 11.1 µM (inactive) | > 100 µM (inactive) | > 100 µM (inactive) | 54.8 | > 10 µM (inactive) | 46.9 µM (inactive) | 57.8 µM (inactive) | 43.5 µM (inactive) | 13.9 µM (inactive) | > 100 µM (inactive) | 86.5 µM (inactive) | 37.7 µM (inactive) | > 100 µM (inactive) | 36.8 µM (inactive) | 37.9 µM (inactive) | 47.2 µM (inactive) | 32.1 µM (inactive) | 34.4 µM (inactive) | 66.7 µM (inactive)
6 | O=C(NCCCNCCCNC(=O)c1cc(-c2ccccc2)nc2ccccc12)c1cc(-c2ccccc2)nc2ccccc12 | 1.93 µM (inactive) | 1.63 µM (inactive) | 1.59 µM (inactive) | 0.834 µM (active) | 2.6 | 1.4 µM (inactive) | 1.88 µM (inactive) | 1.99 µM (inactive) | 1.64 µM (inactive) |  | 2.13 µM (inactive) | 1.86 µM (inactive) | 1.46 µM (inactive) | 1.87 µM (inactive) | 1.72 µM (inactive) | 2 µM (inactive) | 1.78 µM (inactive) | 2.39 µM (inactive) | 1.93 µM (inactive) | 1.75 µM (inactive)
7 | COC(=O)c1c2c(cc3c1CC1(Cc4ccc(C(C)=O)cc4C1)C3)CCC2 (stereo unspecified) | 31.2 µM (inactive) | 27.7 µM (inactive) | 79.3 µM (inactive) | > 10 µM (inactive) | 31.8 | 17.1 µM (inactive) | 87.5 µM (inactive) | 17.6 µM (inactive) | 6.92 µM (inactive) | 21 µM (inactive) | 15.7 µM (inactive) | 46.5 µM (inactive) | > 100 µM (inactive) | > 100 µM (inactive) | 24.7 µM (inactive) |  | 18 µM (inactive) | 28.3 µM (inactive) | 35.7 µM (inactive) | 42.2 µM (inactive)
8 | CCOC(CN=C=S)OCC | > 10 µM (inactive) | 4.45 µM (inactive) | > 10 µM (inactive) | > 10 µM (inactive) | > 10 | 3.83 µM (inactive) | > 10 µM (inactive) | > 10 µM (inactive) | > 10 µM (inactive) | > 10 µM (inactive) | > 10 µM (inactive) | > 10 µM (inactive) | > 10 µM (inactive) |  | 3.77 µM (inactive) | > 10 µM (inactive) | > 10 µM (inactive) | > 10 µM (inactive) | > 10 µM (inactive) | > 10 µM (inactive)
9 | CCC(C)C(C(=O)N/N=C1/SCC(=O)N1C)C(=O)N/N=C1/SCC(=O)N1C (stereo unspecified) | > 100 µM (inactive) |  | > 100 µM (inactive) | > 100 µM (inactive) | > 100 | 2.04 µM (inactive) | > 100 µM (inactive) | > 100 µM (inactive) | > 100 µM (inactive) | > 100 µM (inactive) | > 100 µM (inactive) | > 100 µM (inactive) | > 100 µM (inactive) | > 100 µM (inactive) | > 100 µM (inactive) | > 100 µM (inactive) | > 100 µM (inactive) | > 100 µM (inactive) | > 100 µM (inactive) | > 100 µM (inactive)
10 | C1=CC(=[N+]2N=C(c3ccccc3)CC2c2ccccc2)C=CC1=C1SC(c2ccccc2)(c2ccccc2)c2ccccc21.[O-][Cl+3]([O-])([O-])[O-] (stereo unspecified) | > 100 µM (inactive) | > 100 µM (inactive) | > 100 µM (inactive) | > 100 µM (inactive) | > 100 | > 100 µM (inactive) | > 100 µM (inactive) | > 100 µM (inactive) | > 100 µM (inactive) | > 100 µM (inactive) | > 100 µM (inactive) | > 100 µM (inactive) | > 100 µM (inactive) | > 100 µM (inactive) |  | > 100 µM (inactive) | > 100 µM (inactive) | > 100 µM (inactive) | > 100 µM (inactive) | > 100 µM (inactive)
